# Measured values reported in paper PMC4999892 (Scientific Reports, 2016).
# Bridges are numbered along the chain shown (N, C = ends). Where no end group is shown, it is not given here.
# Tests used:
# B. megaterium cells = experiment: Membrane permeability assay with propidium iodide; type: cell-based, Bacillus megaterium
# [1] = system: Geotrichum candidum CCTCC AY 93038; experiment: Inhibition zone assay; type: cell-based; details: N.A. = no inhibition zone at 0.8–1.0 nmol peptides each well
# Description: (§1) Antimicrobial activity of peptides was assessed by the inhibition zone assay. Membrane permeability assay was performed according to the method previously reported. Sources of microbial strains used here are listed in Supplementary Table S2.
# Aspergillus niger = experiment: Inhibition zone assay; type: cell-based; details: N.A. = no inhibition zone at 0.8–1.0 nmol peptides each well
# Description: as §1
# [2] = system: Aspergillus nidulans RCho15; experiment: Inhibition zone assay; type: cell-based; details: N.A. = no inhibition zone at 0.8–1.0 nmol peptides each well
# Description: as §1
# Aspergillus nidulans A28 = experiment: Inhibition zone assay; type: cell-based; details: N.A. = no inhibition zone at 0.8–1.0 nmol peptides each well
# Description: as §1
# [3] = system: Aspergillus fumigatus CEA17; experiment: Inhibition zone assay; type: cell-based; details: mutant (pyrG-), N.A. = no inhibition zone at 0.8–1.0 nmol peptides each well
# Description: as §1
# [4] = system: Neurospora crassa CGMCC 3.1605; experiment: Inhibition zone assay; type: cell-based; details: N.A. = no inhibition zone at 0.8–1.0 nmol peptides each well
# Description: as §1
# [5] = system: Aspergillus fumigatus CEA17, A. nidulans A28 and RCho15, A. niger, Geotrichum candidum, Neurospora crassa; details: summary of Table 1; range stated for DtDRS-1 and DRS together
# [6] = not given; remark: listed apart in the source
# [7] = not given; remark: listed apart in the source
# [8] = system: Bacillus megaterium CGMCC 1.0459; experiment: Inhibition zone assay; type: cell-based; details: Gram-positive, N.A. = no inhibition zone at 0.8–1.0 nmol peptides each well
# Description: as §1
# [9] = system: Micrococcus luteus CGMCC 1.0290; experiment: Inhibition zone assay; type: cell-based; details: Gram-positive, N.A. = no inhibition zone at 0.8–1.0 nmol peptides each well
# Description: as §1
# [10] = not given; remark: listed apart in the source
# [11] = system: Xanthomonas oryzae pv.oryzae; details: inhibition zone assay; Gram-negative; N.A. = no inhibition zone at 0.8–1.0 nmol peptides each well
# [12] = system: Bacillus megaterium and Micrococcus luteus; experiment: Inhibition zone assay, summary over two Gram-positive bacteria; type: cell-based; details: summary of Table 1
# [13] = system: G. candidum and N. crassa; experiment: Inhibition zone assay, summary over two fungal species; type: cell-based; details: summary of Table 1
# [14] = peptides at 5× CL, milder than positive control meucin-18
Molecule,"Effect on membrane integrity (propidium iodide fluorescence) (B. megaterium cells; vancomycin at 10× CL, negative control)",CL (lethal concentration) [1],CL (lethal concentration) (Aspergillus niger),CL (lethal concentration) [2],CL (lethal concentration) (Aspergillus nidulans A28),CL (lethal concentration) [3],CL (lethal concentration) [4],"Lethal concentrations (CL), range over sensitive fungi [5]",Unordered content,β-Sheet content [6],α-Helix content [7],CL (lethal concentration) [8],CL (lethal concentration) [9],Turns content [10],CL (lethal concentration) [11],Effect on membrane integrity (propidium iodide fluorescence) (B. megaterium cells; [14]),"CL, range over two Gram-positive bacteria [12]","CL, range over two fungal species [13]"
"CN[C@H](CC(C)C)C(=O)N[C@H]1C(=O)N[C@@H](CC(N)=O)C(=O)N[C@H]2C(=O)N[C@H]3C(=O)N[C@H](C(=O)N[C@H](C(=O)O)c4cc(O)cc(O)c4-c4cc3ccc4O)[C@H](O)c3ccc(c(Cl)c3)Oc3cc2cc(c3O[C@@H]2O[C@H](CO)[C@@H](O)[C@H](O)[C@H]2O[C@H]2C[C@](C)(N)[C@H](O)[C@H](C)O2)Oc2ccc(cc2Cl)[C@H]1O [vancomycin, reference compound]",no fluorescence increase,–,–,–,–,–,–,–,–,–,–,–,–,–,–,–,–,–
"DCLSGRYKGPCAVWDNETCRRVCKEEGRSSGHCSPSLKCWCEGC (disulfide 2-44, 11-33, 19-39, 23-41) [DRS, Drosomycin, reference compound]",–,1.89 µM,1.32 µM,1.73 µM,0.45 µM,0.30 µM,0.1 µM,0.1 to 2.6 µM,–,–,–,–,–,–,–,–,–,–
"DCLSGRYKGPCAVWDNETCRRVCKEEGRVSGHCSPSLKCWCEGC (disulfide 2-44, 11-33, 19-39, 23-41) [DtDRS-1]",–,2.50 µM,2.63 µM,2.03 µM,1.25 µM,0.33 µM,0.3 µM,0.1 to 2.6 µM,–,–,–,–,–,–,–,–,–,–
"DFKSGKFKGGCMAWSGEKCRRLCKEQGAVSGHCSSNFKCWCEM (disulfide 11-33, 19-39, 23-41 (inferred)) [DtDRS-11]",–,–,–,–,–,–,–,–,48%,16%,21%,4.41 µM,3.06 µM,15%,8.84 µM,immediate fluorescence increase,–,–
"DFLSGKFKGGCMMWSGEKCRRLCKEQGAVSGHCSTNFKCWCEE (disulfide 11-33, 19-39, 23-41 (inferred)) [DtDRS-11d]",–,–,–,–,–,–,–,–,53%,16%,18%,0.98 µM,1.08 µM,15%,–,immediate fluorescence increase,0.98 to 1.08 µM,–
"RDFLSGTFGGPCWAWSGEKCRRLCIEEGHVSGHCSGAMKCWCEG (disulfide 12-34, 20-40, 24-42 (inferred)) [DRS-3-WDB]",–,4.89 µM,–,–,–,–,3.72 µM,–,41%,22%,19%,–,–,18%,–,–,–,3.72 to 4.89 µM
